Test results: US12441739B2, “Glucagon receptor antagonist and use thereof” (LANZHOU UNIVERSITY, priority 2021, dated 2025)
Where “and” joins values, the source holds several entries; their conditions need not be identical. Equal values may be shown once.

Biological target: T1, human glucagon receptor (hGCGR) (Homo sapiens, UniProt P47871)
T1 construct: host or cells: HEK293
Test: HTRF second messenger cAMP response experiment (called cell viability test) in HEK293 cells with glucagon peptide segment
Assay type: cell-based
Details: for inhibitory activity of glucagon receptor (in words, from cAMP response curves): FIG. 5 / FIG. 14
Procedure: In order to determine the antagonistic activity of the compound A on the glucagon receptor in the above embodiments, a cell viability test is carried out. The specific implementation is as follows.
A known human glucagon receptor (hGCGR) antagonist drug is selected as a positive control, and the compound A in the above embodiments, a glucagon peptide segment (that is, human full-length glucagon), and human embryonic kidney cells containing target receptor molecules are mixed. The glucagon peptide segment binds to hGCGR to activate the hGCGR signaling pathway and release the second messenger cAMP. The compound A acts as an antagonist to inhibit the activity of hGCGR.
In an exemplary embodiment, a known hGCGR antagonist drug (L-168,049) is selected as a positive control. […] In addition, in view of the human glucagon receptor on the cell membrane of human embryonic kidney cells HEK293, HEK293 is used to test the drug activity of the human glucagon antagonist. In this embodiment, different concentrations of compound A of the present disclosure and the positive control are respectively mixed with glucagon peptide segments and HEK293 cells, the second messenger cAMP is detected through homogeneous time resolved fluorescence (HTRF), and a half maximal inhibitory concentration value of each compound is calculated according to the intensity value of HTRF.
(§1) In an exemplary embodiment, the activity of the compound A is tested using the HTRF technique. Specifically, after activation of the glucagon receptor by the glucagon peptide segment, the second messenger cAMP is released from the glucagon receptor cells, the second messenger cAMP may be detected by HTRF, and the half maximal inhibitory concentration (IC50) of the tested compound may be calculated according to the fluorescence intensity.
In an exemplary embodiment, 11 identical concentration gradients are set for the compounds A1 and A2 respectively. The activities of the compounds A1 and A2 are determined by the HTRF second messenger cAMP response experiment in triplicate.
Step S910. Select an antagonist drug of hGCGR as a positive control, and mix each target drug small molecule, a glucagon peptide segment, and human embryonic kidney cells containing the target receptor molecule. The glucagon peptide segment binds to hGCGR to activate the hGCGR signaling pathway and release the second messenger cAMP. The target drug molecule acts as an antagonist to inhibit the activity of hGCGR.
In an exemplary embodiment, an antagonist drug (such as L-168,049) of hGCGR is selected as a positive control. In addition, in view of the human glucagon receptor on the cell membrane of human embryonic kidney cells (such as HEK293), HEK293 may be used to test the drug activity of the human glucagon antagonist. The target drug small molecule, the glucagon peptide segment, and the HEK293 cells containing the target receptor molecule are mixed. The glucagon peptide segment is used to bind to hGCGR to activate the hGCGR signaling pathway and promote the release of the second messenger cAMP. The target drug molecule acts as an antagonist to inhibit the activity of hGCGR.
Step S920. Detect the second messenger cAMP through HTRF, and determine a half maximal inhibitory concentration value of each target drug small molecule according to an intensity value of HTRF.
as §1, with “each target drug small molecule (such as 30 target drug small molecules shown in Table 2)” for “the compound A”, “tested by” for “tested”, “drug molecule” for “tested compound”, “intensity. […]” for “intensity.”

[1] = concentration gradient LogM −5, HEK293 cells, glucagon peptide segment, HTRF cAMP, triplicate columns
[2] = concentration gradient LogM −5.954243, HEK293 cells, glucagon peptide segment, HTRF cAMP, triplicate columns
[3] = concentration gradient LogM −6.908485, HEK293 cells, glucagon peptide segment, HTRF cAMP, triplicate columns

T1 sequence (P47871 26-477): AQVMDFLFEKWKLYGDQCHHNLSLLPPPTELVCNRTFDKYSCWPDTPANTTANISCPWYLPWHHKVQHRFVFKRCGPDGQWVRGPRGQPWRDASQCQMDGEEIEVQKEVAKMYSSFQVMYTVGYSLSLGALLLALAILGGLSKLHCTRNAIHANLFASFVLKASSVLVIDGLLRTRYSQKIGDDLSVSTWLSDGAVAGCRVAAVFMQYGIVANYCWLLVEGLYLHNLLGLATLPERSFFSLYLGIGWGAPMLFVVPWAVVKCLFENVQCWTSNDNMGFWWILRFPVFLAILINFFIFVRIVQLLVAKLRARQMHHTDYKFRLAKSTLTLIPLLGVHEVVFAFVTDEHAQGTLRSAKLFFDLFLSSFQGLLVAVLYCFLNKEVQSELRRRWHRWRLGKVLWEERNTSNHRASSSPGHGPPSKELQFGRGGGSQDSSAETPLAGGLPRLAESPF

CSc1cccc(NC(=O)c2c(O)c3sccc3[nH]c2=O)c1 [Compound C14]
IC50: 0.422 µM | inhibitory activity of glucagon receptor (in words, from cAMP response curves): have the activity | inhibitory activity of glucagon receptor (in words, from cAMP response curves) (listed as A2): good inhibitory activity of glucagon receptor | Inhibition percentage [1]: 103.2945% and 102.1097% and 103.2736% | Inhibition percentage (concentration gradient LogM −5, triplicate, HEK293, cAMP HTRF, listed as A2): 103.2945 percentage and 102.1097 percentage and 103.2736 percentage | Inhibition percentage (concentration gradient LogM −5.477121, HEK293 cells, glucagon peptide segment, HTRF cAMP, triplicate columns): 106.1285% and 105.9119% and 107.3553% | Inhibition percentage (concentration gradient LogM −5.477121, triplicate, HEK293, cAMP HTRF, listed as A2): 106.1285 percentage and 105.9119 percentage and 107.3553 percentage | Inhibition percentage [2]: 84.32% and 92.48% and 91.05% | Inhibition percentage (concentration gradient LogM −5.954243, triplicate, HEK293, cAMP HTRF, listed as A2): 84.32 percentage and 92.48 percentage and 91.05 percentage | Inhibition percentage (concentration gradient LogM −6.431364, HEK293 cells, glucagon peptide segment, HTRF cAMP, triplicate columns): 40.16% and 62.74% and 47.65% | Inhibition percentage (concentration gradient LogM −6.431364, triplicate, HEK293, cAMP HTRF, listed as A2): 40.16 percentage and 62.74 percentage and 47.65 percentage

COc1ccc2cc(C(=O)NCCNc3ccc(C)nn3)[nH]c2c1 [Compound C15]
IC50: > 10 µM | Inhibition percentage [1]: 2.451% and 0.02571% and 3.529% | Inhibition percentage [3]: −19.189% and −13.1875% and −18.6652% | Inhibition percentage (concentration gradient LogM −7.862728, HEK293 cells, glucagon peptide segment, HTRF cAMP, triplicate columns): 3.911% and 12.71% and 11.16%

O=C(CCNC(=O)c1ccccc1)NCc1cccc(NC(=O)C2CC2)c1 [Compound C16]
IC50: > 10 µM | Inhibition percentage [3]: −5.221% and −7.477% and −6.358% | Inhibition percentage (concentration gradient LogM −8.81697, HEK293 cells, glucagon peptide segment, HTRF cAMP, triplicate columns): −7.7562% and −6.836% and −15.6271%

CSc1cccc(NC(=O)CCNS(=O)(=O)c2ccc(NC(C)=O)cc2)c1 [Compound C17]
IC50: > 10 µM

O=C(COC(=O)CCNS(=O)(=O)c1ccc(Cl)cc1)NC(=O)NCc1ccco1 [Compound C18]
IC50: > 10 µM | Inhibition percentage [2]: −6.593% and −12.6979% and −7.936%

O=C(CNC(=O)NCCCOC1CCCCC1)Nc1ccc(F)c(F)c1 [Compound C19]
IC50: > 10 µM

O=C(COC(=O)CCNC(=O)c1ccsc1)NC(=O)NCc1cccs1 [Compound C20]
IC50: > 10 µM

O=C(CSc1nc2ccccc2[nH]1)NC(=O)Nc1ccc2c(c1)OCO2 [Compound C21]
IC50: > 10 µM

O=C(CNC(=O)NCCCN1CCCCCC1=O)Nc1ccc(F)c(F)c1 [Compound C22]
IC50: > 10 µM | Inhibition percentage (concentration gradient LogM −7.385606, HEK293 cells, glucagon peptide segment, HTRF cAMP, triplicate columns): −5.735% and 1.578% and −3.875%

Cc1ccc(-c2csc(NC(=O)c3ccc4c(c3)NC(=O)CS4)n2)c(C)c1 [Compound C23]
Inhibition percentage [1]: 75.66% and 75.14% and 57.58%

CNC(=O)Cc1ccccc1NC(=O)NCCC(=O)NC1CCCC1 [Compound C24]
IC50: > 10 µM

CC(C)(C)NC(=O)NC(=O)CSc1nc(-c2cccs2)c(-c2cccs2)[nH]1 [Compound C25]
IC50: > 10 µM

COc1cc(NC(=O)CNC(=O)CNC(=O)c2cccs2)c(OC)cc1Cl [Compound C26]
IC50: > 10 µM

O=C(CCNC(=O)NC1CCCCC1)NNc1ccccc1C(F)(F)F [Compound C27]
IC50: > 10 µM | Inhibition percentage (concentration gradient LogM −8.339849, HEK293 cells, glucagon peptide segment, HTRF cAMP, triplicate columns): −24.7315% and −29.8299% and −20.459%

CS(=O)(=O)NCCOc1ccc(S(=O)(=O)NCCOc2ccccc2)cc1 [Compound C28]
IC50: > 10 µM

Cn1c(CNC(=O)c2cccs2)nnc1SCC(=O)Nc1ccc(Cl)cc1 [Compound C29]
IC50: > 10 µM

CNC(=O)NC(=O)CSc1nc2cc(-c3ccc(F)cc3)sc2c(=O)n1N [Compound C30]
IC50: > 10 µM
